# Results reported in ChEMBL document CHEMBL3507680, “University of Dundee, Gates Library screen for HepG2 cell viability”.
# Assay: Human HepG2 cell viability assay in 384 well format
# Type: toxicity, cell-based
# Design: dose 125 nL, time 70.5 hour; concentration not given beside the values
# Details: HepG2 cells, read-out: Inhibition
row,Structure (SMILES),cytotoxicity at 70.5 h [%]
1,CCn1cc(NC(=O)C2CCN(Cc3nc(C)c(C)s3)CC2)cn1,-5.47
2,COc1ccc(-c2nc(CCNCc3ccncc3)co2)cc1,1.89
3,COc1ccc2c(c1)OCC(Cc1ccc(N(C)C)nc1)C2 (configuration not stated),-4.83
4,CCCOC(=O)NCCC1CN(c2cnn(C)c(=O)c2)CCO1 (configuration not stated),-10.5
5,Cc1nc(=O)c2ccccc2n1C1=CCN(CC(=O)N2CCCC2)CC1,-1.43
6,COCC1CCN(CCOc2ccc(C#N)cc2OC)CC1,20.7
7,OCc1ccc(CN2CCC(n3cc(-c4ccc(F)cc4)nn3)CC2)o1,-8.09
8,O=C1CCC2(CCCN(C(=O)Cc3cccnc3)C2)N1 (configuration not stated),-6.68
9,c1ccc(-c2nc(CN3CCCC3Cn3cncn3)no2)cc1 (configuration not stated),-13.3
10,O=C(NS(=O)(=O)c1ccc(C2CCCCC2)cc1)C1COCCO1 (configuration not stated),-4.85
11,CCN(Cc1ccoc1)C(=O)NC1CCN(C(=O)OC(C)(C)C)C1 (configuration not stated),-2.35
12,O=S1(=O)C[C@@H]2[C@H](C1)N(Cc1nc3ccccc3[nH]1)CCN2CC1CC1,-5.06
13,CC(=O)N1CCC(c2ncc3c(n2)CCN(C(=O)c2ccccc2)C3)C1 (configuration not stated),-2.46
14,O=C(NCC(O)c1ccc(Cl)c(F)c1)NC1CC=CC1 (configuration not stated),-3.83
15,CC(C)COCCCNC(=O)NCC(O)c1cccc(F)c1 (configuration not stated),-0.106
16,COc1cccc(COc2nc(C(C)C)no2)c1,15.2
17,NC(=O)C(NC(=O)COCCc1ccccc1)c1ccccc1F (configuration not stated),5.16
18,c1cc(COC[C@]23COC[C@H]2CN(CC2CCC2)C3)ccn1,-11.8
19,CN(C)CCN(C)C(=O)Cn1cccc2cc(-c3ccc(F)cc3)nc1-2,4.32
20,CN(C)Cc1cc(C2CCCCN2S(=O)(=O)c2cccc(Cl)c2)nn1C (configuration not stated),-3.27
21,Cc1ccc(C(=O)NCCCN(C)S(C)(=O)=O)c(=O)[nH]1,-5.2
22,CCC1=N[C@@]2(CC[C@@H]3CN(S(=O)(=O)CC)C[C@@H]32)C(=O)N1CCOC,-2.77
23,Cc1nc(CN2CCCC(Cn3cc(CCO)nn3)C2)c2ccccn12 (configuration not stated),-5.43

row,Structure (SMILES),cytotoxicity at 70.5 h [%]
1,Cc1nc[nH]c1CN1C[C@@H]2CC[C@H](C1)N(C(=O)CCc1cccnc1)C2,-11.7
2,Cc1noc(C2CCN(C(=O)c3c(C)noc3C)CC2)n1,-10.7
3,Cc1cc(NCCc2c[nH]cn2)nc(-c2cccnc2)n1,-6.06
4,CCCc1cc(=O)[nH]c(-c2ccccc2CN(C)CCn2cccn2)n1,5.03
5,CN(Cc1ccco1)C(=O)CN1CCc2ccccc2C1,-7.16
6,O=C(C1CCOC1)N1CCN(CC(F)(F)F)c2ccccc21 (configuration not stated),-5.62
7,CCc1nnc(CN2CCCCC2Cn2nc(C)nc2C)o1 (configuration not stated),-5.83
8,Nc1cncc(C(=O)N2Cc3ccccc3OC3(CCOCC3)C2)c1,7.99
9,Cn1c(-c2ccccc2Cl)nc2cc(C(=O)NCC3(CO)CC3)cnc21,-10
10,O=C(c1ccc2sccc2c1)N1CCC(C(=O)O)(n2cccn2)CC1,-6.51
11,O=C(CCCN1CCCCC1)NC(C(=O)O)c1cccc(F)c1 (configuration not stated),-6.49
12,CC(C)c1ocnc1C(=O)N1CCC2(CC1)OCCO2,-8.01
13,O=C1NCCCCC1NS(=O)(=O)N1CCCCCC1 (configuration not stated),-13.8
14,Cc1ccc(OC2(C(=O)O)CCN(C(=O)CCc3ccco3)CC2)cn1,-0.99
15,Cc1cnc(N2C[C@H]3CCCC(N(C)Cc4ccccn4)[C@H]3C2)nc1 (some centres not stated),-9.85
16,CCc1nc(-c2ccc(NC(=O)N3CCCC3)cc2)no1,-19.3
17,CCN(CC)CC1CN(CCc2ccccc2)Cc2nccn2C1 (configuration not stated),-4.11
18,CC(C)Cn1cncc1CNC(=O)c1cccc(Cn2cccn2)c1,-5.12
19,O=C(NCc1c(F)cccc1Cl)c1cc(CN2CCCC(O)C2)on1 (configuration not stated),-13.8
20,Cc1ccc(NCc2cn3c(n2)CN(Cc2ccoc2)CC3)nn1,12
21,Cc1noc(CNc2cc3c(cc2Cl)OCCCO3)n1,-14.8
22,Cc1nnc(NCC(c2ccco2)N2CCCCC2)c(C#N)c1C (configuration not stated),-0.616
23,CC(O)CN1CC(C)(C)CN(C(=O)CCc2ccccc2)CC1=O (configuration not stated),-2.42

row,Structure (SMILES),cytotoxicity at 70.5 h [%]
1,CCCc1nc(C(=O)NC(COC)c2ccnn2C)cs1 (configuration not stated),-10.8
2,Cn1nc(C2CCN(C(=O)CN3CCCCC3)CC2)c2cccnc21,-4.57
3,CN(C)CCn1c(=O)n(C)c(=O)c2ccccc21,18.7
4,Cc1cnn(CC(C)NCc2ccc(OCC(N)=O)cc2)c1 (configuration not stated),11.6
5,Cc1cccc(-c2noc(CN3CCc4c(ncn4C4CC4)C3)n2)c1,-13.2
6,CC(C)c1ncc2c(n1)CN(Cc1nc(-c3ccoc3)no1)CC2,-16.7
7,CCC(C)NC(=O)NCCC(=O)N1CCN(c2ccccn2)CC1 (configuration not stated),-0.377
8,CCCc1cc(C(=O)N(Cc2cccnc2)C2CCCCC2)[nH]n1,-7.56
9,Cc1ccc(S(=O)(=O)N2CCOc3ccccc32)cc1C(N)=O,14
10,CCCNC1(c2ccc(Cl)cc2)CCOCC1,6.67
11,COc1ncccc1NC(=O)NC1CCOc2ccccc21 (configuration not stated),-14.2
12,CN1CCCN(c2nccc(-c3c[nH]c4ccc(Br)cc34)n2)CC1,9.19
13,COc1ccccc1N1CCC(CNCc2cccc(OC)c2OC)C1 (configuration not stated),13.4
14,CCc1nc(CN2CCN(CC(O)c3ccccc3)CC2)no1 (configuration not stated),17.3
15,Cc1noc(C)c1C(=O)NCc1cc[nH]n1,11.4
16,CCc1cnc(CN(C)C(=O)Nc2cnc3c(c2)c(C)nn3C)s1,-2.27
17,CCc1nc(CC)n(CC(=O)N(C)CC(F)(F)F)n1,-4.55
18,O=C(NCC1CC1)[C@@H]1CCO[C@@H]2CCN(CCc3ccccc3)C[C@H]21,-5.09
19,CC(C(=O)NCCOc1cccc(Cl)c1)n1cncn1 (configuration not stated),-9.41
20,Cc1c(C(C)NC2CCCC2)cnn1-c1ccc(F)cc1F (configuration not stated),0.586
21,Oc1cc(CNCCN2CCCCC2)nc2c(F)cccc12,24.5
22,c1ccc(N2CC[C@@H]3CN(Cc4ccncc4)CCO[C@@H]3C2)cc1,-1.73
23,CNC(=O)CN(C)Cc1ccc(F)cc1Cl,-6.72

row,Structure (SMILES),cytotoxicity at 70.5 h [%]
1,Cc1sc2c(C3CCNCC3)nc(Nc3cccc(F)c3)n2c1C,15.7
2,COCCNC(=O)[C@H]1C[C@@H]2CCN(c3ccncn3)C[C@H]2O1,1.69
3,C1CCC(CO[C@@H]2CC[C@H]3[C@H]2OCCN3CC2CCOCC2)C1,-84.4
4,O=S1(=O)C[C@@H]2[C@H](C1)N(Cc1cc(Cl)cc(Cl)c1)CCN2CC1CC1,-17.1
5,CCO[C@H]1CO[C@@]2(CCCN(Cc3nc(C)cs3)C2)C1,-10.1
6,CC(C)Cc1nc(CN2CCCC2Cn2cncn2)no1 (configuration not stated),-7.43
7,Cn1nc(CN2CCCC2)c2c1CN(C(=O)c1ccc[nH]1)CC2,11.9
8,CCn1nc(C)c2ccn(CC(=O)NC3CC3)c(=O)c21,-9.78
9,Cc1ncc(CNCC(C)O)c2cc(C(=O)c3ccc(Br)cc3)oc12 (configuration not stated),-16.1
10,CC(=O)N1CCN(C(=O)c2sc(-c3ccccc3F)nc2C)CC1,16.5
11,Cc1cc(NCC2(O)CCOCC2)nc2ccccc12,-8.29
12,Cc1nsc(NC(=O)N2CCN(Cc3ccccc3F)C(=O)C2)n1,-8.72
13,CC(C)c1nc(CN2CCCN(Cc3nccn3C)CC2)no1,18.1
14,CCn1nc(C)c(NC(=O)c2cc(NC(=O)C3CC3)n(C)n2)c1C,-5.29
15,C[S+]([O-])CCCNC(=O)c1cc(Br)c2c(c1)OCCO2 (configuration not stated),-0.213
16,Cc1ccc(-c2nc(CN3CCN(CC(=O)N(C)C)CC3)cs2)o1,-5.37
17,CC(C)(C)CN[C@@H]1CO[C@H](CNC(=O)c2ccncc2)[C@H]1O,0.614
18,O=C(CC1C=CCC1)N1CCc2ncnc(NCc3ccon3)c2CC1 (configuration not stated),23.6
19,CC(C)N1CCC(NC(=O)c2cn(-c3ccc(F)cc3)nn2)C1 (configuration not stated),-16.5
20,CCc1ncc(S(C)(=O)=O)c(C2CCCNC2)n1 (configuration not stated),-5.94
21,Fc1ccc(CN2CCC3(CC2)CC(c2cccnc2)CO3)cc1 (configuration not stated),-0.689
22,Cc1ccc(-c2ccc(C(=O)NCC(N)=O)c(F)c2)cc1,1.46
23,CSCCCNc1ncnc2cccc(F)c12,23.2

row,Structure (SMILES),cytotoxicity at 70.5 h [%]
1,CC(CNC(=O)NCc1ccco1)N1CCc2sccc2C1 (configuration not stated),36.1
2,Cc1ncc(S(C)(=O)=O)c(N(C)CCCc2cnn(C)c2)n1,-3.73
3,CCCn1ccnc1CN1C[C@@H](CN2CCCCC2)[C@@H](CO)C1,-2.74
4,Cc1nc(CCNc2nc(N(C)C)nc3c2CCCC3)cc(=O)[nH]1,-10.9
5,CC(=O)OC1CN(c2nc3c(C)cccc3s2)C1,-15.1
6,N#Cc1cccc(CNC(=O)C2=NN(c3ccccc3)C(=O)CN2)c1,9.97
7,COc1cc(OC)c(C2SCC(=O)Nc3n[nH]cc32)cc1OC (configuration not stated),-1.01
8,CC(=O)NC[C@]1(O)CCN(C(=O)c2ccc(C)c(F)c2)C[C@H]1O,-2.74
9,Cc1nc(CN2CCCC2c2noc(C3CC3)n2)oc1C (configuration not stated),-9.58
10,CN1CC[C@]2(CN(CC3CC3)C[C@H]2c2ccccc2)C1=O,23.4
11,Cc1oc(-c2ccco2)nc1CN1CCc2cnc(C(C)C)nc2C1,-12
12,Cc1cc(C)cc(CN2C[C@H]3COC[C@H](N4CCN(C)CC4)[C@H]3C2)c1,-6.19
13,O=C(NC1CC1)c1nc(Cn2c(C(F)F)nc3ccccc32)no1,-7.88
14,CCSc1ccc(NC(=O)NC(C)c2c(C)nn(C)c2C)cn1 (configuration not stated),-13.5
15,Cc1[nH]nc2ncc(C(=O)N3CCN(CC(O)C(C)(C)C)CC3)cc12 (configuration not stated),-1.93
16,COC(C)C(=O)NS(=O)(=O)c1ccc(F)c(C(F)(F)F)c1 (configuration not stated),-12.6
17,O=C(CN1CCOC(CNc2cccnn2)C1)NCc1ccccn1 (configuration not stated),19
18,COc1cccc(CN(C)Cc2[nH]c3ccccc3c2C)c1O,1.38
19,O=C(Nc1cnc(Oc2ccccc2F)nc1)C1CC1,-3.71
20,CN(C)C(=O)COC[C@H]1CC[C@@H]2[C@@H](CCN2Cc2ccco2)O1,7.59
